Assay results from US9096584B2, “Compounds useful as inhibitors of ATR kinase” (Vertex Pharmaceuticals Incorporated, priority 2010, dated 2015).

How the values were obtained:
full-length ATR = target: T1, full-length ATR (Homo sapiens, UniProt Q13535); assay: ATR Inhibition Assay (radioactive-phosphate incorporation); type: biochemical
T1 construct: Assays were carried out at 25° C. in the presence of 5 nM full-length ATR
Description: Compounds were screened for their ability to inhibit ATR kinase using a radioactive-phosphate incorporation assay. Assays were carried out in a mixture of 50 mM Tris/HCl (pH 7.5), 10 mM MgCl2 and 1 mM DTT. Final substrate concentrations were 10 μM [γ-33P]ATP (3mCi 33P ATP/mmol ATP, Perkin Elmer) and 800 μM target peptide ([…] (SEQ ID NO: 1)).
Assays were carried out at 25° C. in the presence of 5 nM full-length ATR. An assay stock buffer solution was prepared containing all of the reagents listed above, with the exception of ATP and the test compound of interest. 13.5 μL of the stock solution was placed in a 96 well plate followed by addition of 2 μL of DMSO stock containing serial dilutions of the test compound (typically starting from a final concentration of 15 μM with 3-fold serial dilutions) in duplicate (final DMSO concentration 7%). The plate was pre-incubated for 10 minutes at 25° C. and the reaction initiated by addition of 15 μL [γ-33P]ATP (final concentration 10 μM).
The reaction was stopped after […] by the addition of 30 μL 0.1M phosphoric acid containing 2 mM ATP. A multiscreen phosphocellulose filter 96-well plate (Millipore, Cat no. MAPHN0B50) was pretreated with 100 μL 0.2M phosphoric acid prior to the addition of 45 μL of the stopped assay mixture. The plate was washed with 5×200 μL 0.2M phosphoric acid. After drying, 100 μL Optiphase ‘SuperMix’ liquid scintillation cocktail (Perkin Elmer) was added to the well prior to scintillation counting (1450 Microbeta Liquid Scintillation Counter, Wallac).
After removing mean background values for all of the data points, Ki(app) data were calculated from non-linear regression analysis of the initial rate data using the Prism software package (GraphPad Prism version 3.0cx for Macintosh, GraphPad Software, San Diego Calif., USA).
Below is a chart showing the ATR Inhibition Ki values of compounds of the disclosure.

[1] = system: HCT116 colorectal cancer cells; assay: Cisplatin Sensitization Assay (96 h cell viability MTS); type: cell-based; conditions: concentration of compound required to reduce the IC50 of Cisplatin alone by at least 3-fold, 96 h MTS
Description: Compounds can be screened for their ability to sensitize HCT116 colorectal cancer cells to Cisplatin using a 96 h cell viability (MTS) assay. […] Compounds and Cisplatin are then both added simultaneously to the cell media in 2-fold serial dilutions from a top final concentration of 10 μM as a full matrix of concentrations in a final cell volume of 200 μl, and the cells are then incubated at 37° C. in 5% CO2. After 96 h, 40 μl of MTS reagent (Promega G358a) is added to each well and the cells are incubated for 1 h at 37° C. in 5% CO2.

T1 sequence (Q13535 whole entry): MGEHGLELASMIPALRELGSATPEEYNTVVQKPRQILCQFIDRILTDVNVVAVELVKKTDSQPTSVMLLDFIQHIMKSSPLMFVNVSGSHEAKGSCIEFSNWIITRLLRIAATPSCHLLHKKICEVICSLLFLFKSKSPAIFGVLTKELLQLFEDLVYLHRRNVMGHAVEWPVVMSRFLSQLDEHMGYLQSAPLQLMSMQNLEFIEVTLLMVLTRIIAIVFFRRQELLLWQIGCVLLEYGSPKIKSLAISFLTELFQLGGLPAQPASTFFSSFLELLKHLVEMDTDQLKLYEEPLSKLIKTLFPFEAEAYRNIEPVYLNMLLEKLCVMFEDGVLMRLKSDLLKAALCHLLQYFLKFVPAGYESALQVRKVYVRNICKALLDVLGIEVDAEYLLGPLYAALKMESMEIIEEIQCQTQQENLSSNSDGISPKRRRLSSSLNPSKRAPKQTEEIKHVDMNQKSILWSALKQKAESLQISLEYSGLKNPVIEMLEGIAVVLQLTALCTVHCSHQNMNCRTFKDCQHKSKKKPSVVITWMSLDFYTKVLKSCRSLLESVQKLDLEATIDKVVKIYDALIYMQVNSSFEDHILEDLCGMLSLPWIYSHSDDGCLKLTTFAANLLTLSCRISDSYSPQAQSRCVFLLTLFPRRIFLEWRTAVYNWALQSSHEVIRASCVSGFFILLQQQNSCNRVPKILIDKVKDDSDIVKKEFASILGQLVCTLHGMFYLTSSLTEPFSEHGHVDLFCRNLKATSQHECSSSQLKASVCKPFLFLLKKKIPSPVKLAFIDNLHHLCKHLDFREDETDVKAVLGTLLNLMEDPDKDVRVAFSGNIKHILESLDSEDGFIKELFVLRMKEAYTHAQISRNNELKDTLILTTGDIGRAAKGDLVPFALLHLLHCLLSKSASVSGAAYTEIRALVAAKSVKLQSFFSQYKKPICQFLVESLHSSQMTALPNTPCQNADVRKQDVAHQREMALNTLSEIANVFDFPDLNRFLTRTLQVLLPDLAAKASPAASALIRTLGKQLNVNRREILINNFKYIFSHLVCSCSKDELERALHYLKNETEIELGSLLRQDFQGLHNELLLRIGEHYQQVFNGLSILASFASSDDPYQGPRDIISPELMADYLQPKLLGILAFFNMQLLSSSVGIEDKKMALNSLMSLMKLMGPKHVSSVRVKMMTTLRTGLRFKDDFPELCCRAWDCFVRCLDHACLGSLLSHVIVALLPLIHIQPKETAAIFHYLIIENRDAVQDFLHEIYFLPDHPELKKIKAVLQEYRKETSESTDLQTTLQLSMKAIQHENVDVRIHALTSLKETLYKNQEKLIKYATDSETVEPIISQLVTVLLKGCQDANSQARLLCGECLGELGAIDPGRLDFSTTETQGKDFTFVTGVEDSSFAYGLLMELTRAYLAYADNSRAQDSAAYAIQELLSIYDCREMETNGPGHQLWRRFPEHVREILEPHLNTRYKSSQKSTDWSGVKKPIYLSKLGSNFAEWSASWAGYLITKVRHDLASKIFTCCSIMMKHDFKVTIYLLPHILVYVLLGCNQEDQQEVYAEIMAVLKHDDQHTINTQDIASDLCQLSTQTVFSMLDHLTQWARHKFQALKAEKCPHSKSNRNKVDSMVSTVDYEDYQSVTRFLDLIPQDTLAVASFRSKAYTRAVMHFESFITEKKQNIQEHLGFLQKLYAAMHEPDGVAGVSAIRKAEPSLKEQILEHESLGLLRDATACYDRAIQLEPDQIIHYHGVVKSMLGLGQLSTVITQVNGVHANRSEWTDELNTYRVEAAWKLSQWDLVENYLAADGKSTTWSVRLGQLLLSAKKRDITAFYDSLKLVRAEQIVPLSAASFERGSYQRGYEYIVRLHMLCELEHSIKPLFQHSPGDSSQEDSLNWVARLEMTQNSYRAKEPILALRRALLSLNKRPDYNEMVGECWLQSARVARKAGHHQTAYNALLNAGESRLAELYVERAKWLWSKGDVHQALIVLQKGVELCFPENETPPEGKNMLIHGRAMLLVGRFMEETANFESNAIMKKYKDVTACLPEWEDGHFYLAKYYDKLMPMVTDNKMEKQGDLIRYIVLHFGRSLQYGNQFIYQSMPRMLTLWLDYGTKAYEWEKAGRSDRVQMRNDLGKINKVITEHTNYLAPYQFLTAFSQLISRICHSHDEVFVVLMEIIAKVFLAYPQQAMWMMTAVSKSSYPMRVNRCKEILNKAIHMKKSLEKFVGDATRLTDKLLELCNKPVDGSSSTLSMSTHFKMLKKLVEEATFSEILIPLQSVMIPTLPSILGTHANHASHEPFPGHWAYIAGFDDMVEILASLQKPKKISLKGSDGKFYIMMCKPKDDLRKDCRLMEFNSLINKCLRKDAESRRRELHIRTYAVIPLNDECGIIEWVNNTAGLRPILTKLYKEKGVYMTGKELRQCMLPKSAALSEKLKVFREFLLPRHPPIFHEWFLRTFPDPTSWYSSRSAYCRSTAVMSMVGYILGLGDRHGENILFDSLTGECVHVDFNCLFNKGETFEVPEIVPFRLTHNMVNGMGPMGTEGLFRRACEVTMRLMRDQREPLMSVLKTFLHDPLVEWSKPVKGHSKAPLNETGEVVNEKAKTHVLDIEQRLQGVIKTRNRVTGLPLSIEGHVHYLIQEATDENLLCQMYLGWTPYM

| Structure (SMILES) | Ki (full-length ATR) [nM] | CP3 Shift [1] |
| --- | --- | --- |
| CNCc1ccc(-c2nnc(-c3cc(-c4ccc(S(=O)(=O)[C@@H]5CCOC5)cc4)cnc3N)o2)cc1 [III-1, 3-[5-[4-(Methylaminomethyl)phenyl]-1,3,4-oxadiazol-2-yl]-5-[4-[(3R)-tetrahydrofuran-3-yl]sulfonylphenyl]pyridin-2-amine] | ≤ 10 | – |
| Nc1ncc(-c2ccc(C(=O)N3CCCNCC3)cc2)cc1-c1nnc(-c2ccccc2)o1 [III-2, [4-[6-Amino-5-(5-phenyl-1,3,4-oxadiazol-2-yl)-3-pyridyl]phenyl]-(1,4-diazepan-1-yl)methanone] | 10 to 100 | – |
| CS(=O)(=O)c1ccc(-c2cnc(N)c(-c3nnc(-c4ccccc4)o3)c2)cc1 [III-3, 5-(4-(Methylsulfonyl)phenyl)-3-(5-phenyl-1,3,4-oxadiazol-2-yl)pyridin-2-amine] | 10 to 100 | – |
| CCS(=O)(=O)N1CC=C(c2cnc(N)c(-c3nnc(-c4ccccc4)o3)c2)CC1 [III-4, 5-(1-Ethylsulfonyl-3,6-dihydro-2H-pyridin-4-yl)-3-(5-phenyl-1,3,4-oxadiazol-2-yl)pyridin-2-amine] | 10 to 100 | – |
| Cc1ccc(-c2cc(-c3cc(-c4ccc(S(=O)(=O)C(C)C)cn4)cnc3N)on2)cc1 [III-6, 5-(5-Isopropylsulfonyl-2-pyridyl)-3-[3-(p-tolyl)isoxazol-5-yl]pyridin-2-amine] | 10 to 100 | – |
| Nc1ncc(-c2cccnc2)cc1C(=O)Nc1ccccc1 [III-7, 2-Amino-N-phenyl-5-(3-pyridyl)pyridine-3-carboxamide] | 100 to 5000 | – |
| CNCc1ccc(-c2cc(-c3cc(-c4ccc(S(=O)(=O)C(C)C)cn4)cnc3N)on2)c(F)c1 [III-8, 3-[3-[2-Fluoro-4-(methylaminomethyl)phenyl]isoxazol-5-yl]-5-(5-isopropylsulfonyl-2-pyridyl)pyridin-2-amine] | ≤ 10 | .234 µM |
| CNCc1ccc(-c2cc(-c3cc(-c4ccc(S(=O)(=O)C(C)C)cn4)cnc3N)on2)cc1 [III-12, 5-(5-Isopropylsulfonyl-2-pyridyl)-3-[3-[4-(methylaminomethyl)phenyl]isoxazol-5-yl]pyridin-2-amine] | ≤ 10 | .156 µM |

More lines, main results first:

| Ki (full-length ATR) [nM] | Structure (SMILES) | CP3 Shift [1] |
| --- | --- | --- |
| ≤ 10 | CNCc1ccc(-c2nnc(-c3cc(-c4cnc(S(=O)(=O)C(C)C)cn4)cnc3N)o2)cc1 [III-5, 5-(5-Isopropylsulfonylpyrazin-2-yl)-3-[5-[4-(methylaminomethyl)phenyl]-1,3,4-oxadiazol-2-yl]pyridin-2-amine] | – |
| 10 to 100 | CNCc1ccc(-c2nnc(-c3cc(-c4ccsc4)cnc3N)o2)cc1 [III-9, 3-[5-[4-(Methylaminomethyl)phenyl]-1,3,4-oxadiazol-2-yl]-5-(3-thienyl)pyridin-2-amine] | – |
| ≤ 10 | CNCc1ccc(-c2nnc(-c3cc(-c4ccc(S(=O)(=O)C(C)C)cn4)cnc3N)o2)cc1 [III-10, 5-(5-Isopropylsulfonyl-2-pyridyl)-3-[5-[4-(methylaminomethyl)phenyl]-1,3,4-oxadiazol-2-yl]pyridin-2-amine] | .078 µM |
| ≤ 10 | CNCc1ccc(-c2nnc(-c3cc(-c4ccc(S(=O)(=O)C(C)C)cc4)cnc3N)o2)cc1 [III-11, 5-(4-Isopropylsulfonylphenyl)-3-[5-[4-(methylaminomethyl)phenyl]-1,3,4-oxadiazol-2-yl]pyridin-2-amine] | .156 µM |
